# Experimental data: patent publication US20130158111A1, “Compositions and Methods for Depleting Mutant p53” (Georgetown University, priority 2011, published 2013)
# How the values were obtained:
# H522 cells = assay: Apoptosis and cell cycle progression, H522; format: cell-based; conditions: H522, 4 uM PEITC
# From the text: (§1) The negative effects of PEITC on cell proliferation might affect the apoptotic potential of the cells and the cell cycle progression.
# mutant p53 mRNA = assay: Reverse transcription PCR of p53 mRNA in H596 cells; format: cell-based, Human; conditions: H596, 15 μM PEITC; 2, 4, and 6 h
# Protocol: Total RNA was extracted from the cells using the RNeasy kit (Qiagen). Reverse transcription PCR was performed using SuperScript One-Step RT-PCR kit (Invitrogen) according to the manufacturer's instructions. Primers for p53 were 5′-[…]-3′ (sense) and 3′-[…]-5′ (antisense). Primers for β-actin were 5′-[…]-3′ (sense) and 3′-[…]-5′ (antisense). β-Actin was used as an internal standard for RNA normalization.
# [1] = molecular target: T1, mutant p53 in MDA-MB-231 breast cancer cells (Homo sapiens, UniProt P04637, R280K); assay: Immunoblot of mutant p53 in MDA-MB-231 cells treated with ITCs; format: cell-based; conditions: MDA-MB-231, 10 μM ITCs, 24 h, compared with DMSO control
# T1 construct: host or cells: MDA-MB-231
# From the text: Human H596, A549, HCT116, MDA-MB-231, MDA-MB-468, MCF-7, DU145, MCF-10A, SW480, and SCC-4 cells were obtained from ATCC (Manassas, Va.). H1299-175H cells were kindly provided by Dr. Maria Laura Avantaggiati (Georgetown University). Cells were maintained in DMEM or RPMI-1640 medium supplemented with 10% FBS (Hyclone). […] 2,2-Diphenylethyl ITC, 4-phenoxybenzyl ITC, 4-methoxybenzyl ITC, 4-chlorobenzyl ITC, Dα-methylbenzyl ITC, trityl ITC, and 3-phenylpropyl ITC were purchased from Trans World Chemicals (Rockville, Md.). Erucin and 4-phenylbutyl ITC were from LKT Laboratories, Inc. (St. Paul, Minn.). […] The p53 DO-1 and β-actin antibodies were purchased from Santa Cruz Biotechnology (Santa Cruz, Calif.), horseradish peroxidase-labeled goat antimouse secondary antibodies were purchased from GE-Healthcare (Pittsburgh, Pa.), and Bio-Rad Protein Assay was from Bio-Rad (Hercules, Calif.).
# Whole cell lysates were prepared in lysis buffer (20 mM HEPES, pH 7.4, 2 mM EGTA, 50 mM β-glycerol phosphate, 1% Triton X-100, 10% glycerol, 1 mM DTT, 1 mM PMSF, […], 1 mM Na3-VO4, and 5 mM NaF). For immunoblot analysis, equal amounts of protein were resolved on 4-12% NuPAGE BisTris gels (Invitrogen) and transferred to PVDF membranes (Millipore). The membranes were blocked with 5% milk in TBST and were then probed with p53 (DO-1) or β-actin antibody. Proteins were detected using enhanced chemiluminescence (ECL) reagents (GE Healthcare).
# [2] = test system: mutant p53 in MDA-MB-231, MDA-MB-468, DU145, SW480, and SCC-4 cells; assay: Immunoblot of mutant p53 in other tumor cells with mutant p53; format: cell-based, Human
# From the text: Human H596, A549, HCT116, MDA-MB-231, MDA-MB-468, MCF-7, DU145, MCF-10A, SW480, and SCC-4 cells were obtained from ATCC (Manassas, Va.). H1299-175H cells were kindly provided by Dr. Maria Laura Avantaggiati (Georgetown University). Cells were maintained in DMEM or RPMI-1640 medium supplemented with 10% FBS (Hyclone). DMSO, PEITC, BITC, SFN, AITC, NMPEA, and monochlorobimane were purchased from Sigma-Aldrich (St. Louis, Mo.). 2,2-Diphenylethyl ITC, 4-phenoxybenzyl ITC, 4-methoxybenzyl ITC, 4-chlorobenzyl ITC, Dα-methylbenzyl ITC, trityl ITC, and 3-phenylpropyl ITC were purchased from Trans World Chemicals (Rockville, Md.). Erucin and 4-phenylbutyl ITC were from LKT Laboratories, Inc. (St. Paul, Minn.). […] All the compounds are with purities ≧95% as determined by gas-liquid chromatography or HPLC. […]
# Whole cell lysates were prepared in lysis buffer (20 mM HEPES, pH 7.4, 2 mM EGTA, 50 mM β-glycerol phosphate, 1% Triton X-100, 10% glycerol, 1 mM DTT, 1 mM PMSF, […], 1 mM Na3-VO4, and 5 mM NaF). […] Proteins were detected using enhanced chemiluminescence (ECL) reagents (GE Healthcare). […]
# [3] = test system: DU145 (mutant p53) xenograft tumors; assay: Xenograft model, DU145 tumors, PEITC diet; format: in vivo, BALB/C nu/nu transgenic mice
# Protocol: Briefly, 30 BALB/C nu/nu transgenic mice (purchased from Charles River) were randomized into two groups, and fed with powder diet AlN93 (purchased from Research Diets, Inc.) with or without addition of 5 μM PEITC compound (purchased from Sigma-Aldrich). After two weeks of feeding, two xenograft tumors each carrying […] in a volume of 100 μL were established by injection into both flanks of a mouse. Mice were continuously fed with diets with or without PEITC for additional 8 weeks before sacrifice. Diet intake and tumor volume were measured twice every week. Tumors were harvested at the end of bioassay for immunohistochemistry and immunoblot studies. […] Immunohistochemistry assays were carried out to examine the apoptotic markers, such as TUNEL, and anti-proliferation marker Ki67 in tumors from the PEITC-treated vs. untreated mice. This study provides the first in vivo evidence that mutant p53 can be depleted in tumors of mice fed PEITC-containing diet and its depletion seems to correlate with growth inhibition in the mutant p53 tumors.
# DU145 cells = assay: Apoptosis and cell cycle progression, DU145; format: cell-based, Human; conditions: DU145, 4 uM PEITC
# From the text: as §1
structure (smiles),measurement,setting,value
"S=C=NCCc1ccccc1 [PEITC, phenethyl isothiocyanate]",apoptosis compared to DMSO treated cells,H522 cells,two fold increase
same,cell cycle progression,H522 cells,S-phase arrest
same,mutant p53 mRNA levels,mutant p53 mRNA,remained unchanged
same,depletion of mutant p53 at equimolar concentrations,[1],approximately the same extent
same,mutant p53 level in five cell lines,"[2]; 10 or 15 μM PEITC, time-dependent",depleted mutant p53 in all five cell lines
same,concentration causing marked reduction in the level of mutant p53 protein,[2]; variety of tumor cell lines,≥ 10 µM
same,p53 level in tumors detected by immunoblot,"[3]; DU145 tumors, PEITC diet","moderate, yet significant, decrease"
same,tumor volume,"[3]; DU145 xenograft, diet with 5 μM PEITC vs diet without PEITC, 8 weeks",significantly decreased
same,apoptosis compared to DMSO treated cells,DU145 cells,two fold increase
same,cell cycle progression,DU145 cells,S-phase arrest
